Test results reported in US12577245B2, “Sulfonyl benzamide derivatives as Bcl-2 inhibitors” (ASCENTAGE PHARMA (SUZHOU) CO., LTD., priority 2021, dated 2026).

Legend:
RS4; 11Bcl-2-G101V cells = assay: CellTiter-Glo (CTG) cell viability assay in RS4;11-Bcl-2-G101V cells; type: cell-based; settings: 72 h, 10% FBS, 3 days
In short: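 Engineered RS4;11 lines carrying Bcl-2 mutants, 10000 cells/well in RPMI-1640 with 10% FBS, exposed to serially diluted compound for 3 days at 37 °C, 5% CO2. Viability read by CellTiter-Glo luminescence, normalized to vehicle; IC50 calculated.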

Bcl-2 WT = Bcl-2 WT (Homo sapiens, UniProt P10415); assay: Bcl-2 WT inhibition, fluorescence polarization (Flu-BIM tracer) binding assay; settings: FP; 20 nM Bcl2, 5 nM Flu-BIM, 1 h incubation; read-out: Bcl-2 w.t. (FP)
Chain of Bcl-2 WT (P10415 whole entry): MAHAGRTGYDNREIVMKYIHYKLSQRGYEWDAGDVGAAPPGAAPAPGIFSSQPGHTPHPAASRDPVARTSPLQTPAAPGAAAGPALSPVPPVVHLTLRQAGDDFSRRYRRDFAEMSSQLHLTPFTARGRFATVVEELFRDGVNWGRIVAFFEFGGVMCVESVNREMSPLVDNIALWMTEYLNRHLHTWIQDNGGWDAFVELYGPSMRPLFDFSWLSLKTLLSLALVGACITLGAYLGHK

MV-4-11 cells = assay: CCK-8 cell viability assay in MV-4-11 cells; type: cell-based; settings: Homo sapiens, MV4-11, 72 h, 10% FBS, 3 days
In short: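 MV-4-11 cells (20000/well) were exposed to serially diluted compound for 3 days at 37 °C. Viability was then measured with CCK-8 (1–4 h, absorbance 450 nm). IC50 was derived from readings normalized to vehicle.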

How did the IC50 (RS4; 11Bcl-2-G101V cells) turn out when `CC1(C)CCC(CN2CCN(c3ccc(C(=O)NS(=O)(=O)c4ccc(NC[C@H]5COCCO5)c([N+](=O)[O-])c4)c(Oc4cnc5[nH]ccc5c4)c3)CC2)=C(c2cc(-c3ccc(C(F)(F)F)cc3)cs2)C1` [Example 40, (S)—N-((4-(((1,4-dioxan-2-yl)methyl)amino)-3-nitrophenyl)sulfonyl)-2-((1H-pyrrolo[2,3-b]pyridin-5-yl)oxy)-4-(4-((4,4-dimethyl-2-(4-(4-(trifluoromethyl)phenyl)thiophen-2-yl)cyclohex-1-en-1-yl)methyl)piperazin-1-yl)benzamide] was run?
The IC50 was 3550 nM.

What about the IC50 (Bcl-2 WT) of the same compound?
The IC50 was 40.2 nM.

What about the IC50 (MV-4-11 cells) of the same compound?
Its IC50 is 45 nM.

`CC1(C)CCC(CN2CCN(c3ccc(C(=O)NS(=O)(=O)c4ccc(NC[C@H]5CC[C@](C)(O)CC5)c([N+](=O)[O-])c4)c(Oc4cnc5[nH]ccc5c4)c3)CC2)=C(c2cc(-c3ccc(C(F)(F)F)cc3)cs2)C1` [Example 41, 2-((1H-pyrrolo[2,3-b]pyridin-5-yl)oxy)-4-(4-((4,4-dimethyl-2-(4-(4-(trifluoromethyl)phenyl)thiophen-2-yl)cyclohex-1-en-1-yl)methyl)piperazin-1-yl)-N-((4-((((1r,4r)-4-hydroxy-4-methylcyclohexyl)methyl)amino)-3-nitrophenyl)sulfonyl)benzamide] was tested. Which IC50 (RS4; 11Bcl-2-G101V cells) did it give?
Its IC50 is 3230 nM.

What about the IC50 (Bcl-2 WT) of the same compound?
Its IC50 is 44 nM.

And the IC50 (MV-4-11 cells)?
The IC50 was 50 nM.

With `CC1(C)CCC(CN2CCN(c3ccc(C(=O)NS(=O)(=O)c4ccc(NC[C@H]5COCCO5)c([N+](=O)[O-])c4)c(Oc4cnc5[nH]ccc5c4)c3)CC2)=C(c2cc(-c3ccc(F)cc3F)cs2)C1` [Example 42, (S)—N-((4-(((1,4-dioxan-2-yl)methyl)amino)-3-nitrophenyl)sulfonyl)-2-((1H-pyrrolo[2,3-b]pyridin-5-yl)oxy)-4-(4-((2-(4-(2,4-difluorophenyl)thiophen-2-yl)-4,4-dimethylcyclohex-1-en-1-yl)methyl)piperazin-1-yl)benzamide] as the compound, how does the IC50 (RS4; 11Bcl-2-G101V cells) read?
Its IC50 is 480 nM.

And the IC50 (Bcl-2 WT)?
Its IC50 is 38.7 nM.

What about the IC50 (MV-4-11 cells) of the same compound?
The IC50 was 26 nM.

For `CC1(C)CCC(CN2CCN(c3ccc(C(=O)NS(=O)(=O)c4ccc(NC[C@H]5CC[C@](C)(O)CC5)c([N+](=O)[O-])c4)c(Oc4cnc5[nH]ccc5c4)c3)CC2)=C(c2cc(-c3ccc(F)cc3F)cs2)C1` [Example 43, 2-((1H-pyrrolo[2,3-b]pyridin-5-yl)oxy)-4-(4-((2-(4-(2,4-difluorophenyl)thiophen-2-yl)-4,4-dimethylcyclohex-1-en-1-yl)methyl)piperazin-1-yl)-N-((4-((((1r,4r)-4-hydroxy-4-methylcyclohexyl)methyl)amino)-3-nitrophenyl)sulfonyl)benzamide], which IC50 (RS4; 11Bcl-2-G101V cells) is on record?
The IC50 was 280 nM.

What about the IC50 (Bcl-2 WT) of the same compound?
The IC50 was 21.1 nM.

What about the IC50 (MV-4-11 cells) of the same compound?
Its IC50 is 8 nM.

What does the source list for `CC1(C)CCC(CN2CCN(c3ccc(C(=O)NS(=O)(=O)c4ccc(NC[C@H]5COCCO5)c([N+](=O)[O-])c4)c(Oc4cnc5[nH]ccc5c4)c3)CC2)=C(c2cc(-c3ccc(Cl)cc3F)cs2)C1` [Example 44, (S)—N-((4-(((1,4-dioxan-2-yl)methyl)amino)-3-nitrophenyl)sulfonyl)-2-((1H-pyrrolo[2,3-b]pyridin-5-yl)oxy)-4-(4-((2-(4-(4-chloro-2-fluorophenyl)thiophen-2-yl)-4,4-dimethylcyclohex-1-en-1-yl)methyl)piperazin-1-yl)benzamide]?
IC50 (RS4; 11Bcl-2-G101V cells): 830 nM; IC50 (Bcl-2 WT): 31 nM; IC50 (MV-4-11 cells): 31 nM

Which results are given for `CC1(C)CCC(CN2CCN(c3ccc(C(=O)NS(=O)(=O)c4ccc(NC[C@H]5CC[C@](C)(O)CC5)c([N+](=O)[O-])c4)c(Oc4cnc5[nH]ccc5c4)c3)CC2)=C(c2cc(-c3cc(F)c(F)c(F)c3)cs2)C1` [Example 45, 2-((1H-pyrrolo[2,3-b]pyridin-5-yl)oxy)-4-(4-((4,4-dimethyl-2-(4-(3,4,5-trifluorophenyl)thiophen-2-yl)cyclohex-1-en-1-yl)methyl)piperazin-1-yl)-N-((4-((((1r,4r)-4-hydroxy-4-methylcyclohexyl)methyl)amino)-3-nitrophenyl)sulfonyl)benzamide]?
IC50 (RS4; 11Bcl-2-G101V cells): 1680 nM; IC50 (Bcl-2 WT): 33.8 nM; IC50 (MV-4-11 cells): 57 nM

Which results are given for `CC1(C)CCC(CN2CCN(c3ccc(C(=O)NS(=O)(=O)c4ccc(NC[C@H]5CC[C@](C)(O)CC5)c([N+](=O)[O-])c4)c(Oc4cnc5[nH]ccc5c4)c3)CC2)=C(c2cc(-c3ccc(F)c(F)c3F)cs2)C1` [Example 46, 2-((1H-pyrrolo[2,3-b]pyridin-5-yl)oxy)-4-(4-((4,4-dimethyl-2-(4-(2,3,4-trifluorophenyl)thiophen-2-yl)cyclohex-1-en-1-yl)methyl)piperazin-1-yl)-N-((4-((((1r,4r)-4-hydroxy-4-methylcyclohexyl)methyl)amino)-3-nitrophenyl)sulfonyl)benzamide]?
IC50 (RS4; 11Bcl-2-G101V cells): 230 nM; IC50 (Bcl-2 WT): 22.5 nM; IC50 (MV-4-11 cells): 9 nM

Which IC50 (RS4; 11Bcl-2-G101V cells) does the source give for `CC1(C)CCC(CN2CCN(c3ccc(C(=O)NS(=O)(=O)c4ccc(NC[C@H]5COCCO5)c([N+](=O)[O-])c4)c(Oc4cnc5[nH]ccc5c4)c3)CC2)=C(c2cc(-c3ccc(C(F)F)cc3)cs2)C1` [Example 48, (S)—N-((4-(((1,4-dioxan-2-yl)methyl)amino)-3-nitrophenyl)sulfonyl)-2-((1H-pyrrolo[2,3-b]pyridin-5-yl)oxy)-4-(4-((2-(4-(4-(difluoromethyl)phenyl)thiophen-2-yl)-4,4-dimethylcyclohex-1-en-1-yl)methyl)piperazin-1-yl)benzamide] here?
Its IC50 is 810 nM.

What about the IC50 (Bcl-2 WT) of the same compound?
Its IC50 is 20.2 nM.

What about the IC50 (MV-4-11 cells) of the same compound?
The IC50 was 9 nM.

`CC1(C)CCC(CN2CCN(c3ccc(C(=O)NS(=O)(=O)c4ccc(NC[C@H]5CC[C@](C)(O)CC5)c([N+](=O)[O-])c4)c(Oc4cnc5[nH]ccc5c4)c3)CC2)=C(c2cc(-c3ccc(C(F)F)cc3)cs2)C1` [Example 49, 2-((1H-pyrrolo[2,3-b]pyridin-5-yl)oxy)-4-(4-((2-(4-(4-(difluoromethyl)phenyl)thiophen-2-yl)-4,4-dimethylcyclohex-1-en-1-yl)methyl)piperazin-1-yl)-N-((4-((((1r,4r)-4-hydroxy-4-methylcyclohexyl)methyl)amino)-3-nitrophenyl)sulfonyl)benzamide] was tested. Which IC50 (RS4; 11Bcl-2-G101V cells) did it give?
Its IC50 is 420 nM.

What about the IC50 (Bcl-2 WT) of the same compound?
The IC50 was 38.4 nM.

And the IC50 (MV-4-11 cells)?
Its IC50 is 9 nM.

Which IC50 (RS4; 11Bcl-2-G101V cells) does the source give for `CC1(C)CCC(CN2CCN(c3ccc(C(=O)NS(=O)(=O)c4ccc(NC[C@H]5COCCO5)c([N+](=O)[O-])c4)c(Oc4cnc5[nH]ccc5c4)c3)CC2)=C(c2cc(-c3ccc(F)c(F)c3)cs2)C1` [Example 50, (S)—N-((4-(((1,4-dioxan-2-yl)methyl)amino)-3-nitrophenyl)sulfonyl)-2-((1H-pyrrolo[2,3-b]pyridin-5-yl)oxy)-4-(4-((2-(4-(3,4-difluorophenyl)thiophen-2-yl)-4,4-dimethylcyclohex-1-en-1-yl)methyl)piperazin-1-yl)benzamide] here?
Its IC50 is 1950 nM.

What about the IC50 (Bcl-2 WT) of the same compound?
Its IC50 is 30.4 nM.

What about the IC50 (MV-4-11 cells) of the same compound?
Its IC50 is 65 nM.

For `CC1(C)CCC(CN2CCN(c3ccc(C(=O)NS(=O)(=O)c4ccc(NC[C@H]5CC[C@](C)(O)CC5)c([N+](=O)[O-])c4)c(Oc4cnc5[nH]ccc5c4)c3)CC2)=C(c2cc(-c3ccc(F)c(F)c3)cs2)C1` [Example 51, 2-((1H-pyrrolo[2,3-b]pyridin-5-yl)oxy)-4-(4-((2-(4-(3,4-difluorophenyl)thiophen-2-yl)-4,4-dimethylcyclohex-1-en-1-yl)methyl)piperazin-1-yl)-N-((4-((((1r,4r)-4-hydroxy-4-methylcyclohexyl)methyl)amino)-3-nitrophenyl)sulfonyl)benzamide], which IC50 (RS4; 11Bcl-2-G101V cells) is on record?
The IC50 was 1140 nM.

And the IC50 (Bcl-2 WT)?
Its IC50 is 35.5 nM.

And the IC50 (MV-4-11 cells)?
The IC50 was 52 nM.
